The values that follow are results of earlier work, collected in EP4609858A1, “BUP[…] AND PREPARATION METHOD THEREFOR” (Shenzhen Sciencare Pharmaceutical Co., Ltd., priority 2023, dated 2024).

Counter-ions that a name gives are not always drawn. Like-named read-outs stand apart in the source and are kept apart here.

`CO[C@]12CC[C@@]3(C[C@@H]1[C@](C)(O)C(C)(C)C)[C@H]1Cc4ccc(O)c5c4[C@@]3(CCN1CC1CC1)[C@H]2O5` [buprenorphine hydrochloride]: the solubility entry runs as follows: (in alcohol) “soluble”; (in methanol) “freely soluble”; (in water) “slightly soluble”.
